Experimental data from patent publication US10308643B2, “Heterocyclic compound” (Takeda Pharmaceutical Company Limited, priority 2015, dated 2019).

Legend:
Format in all cases: biochemical
[1] = target: T1, HDAC6 enzyme (Homo sapiens, UniProt Q9UBN7); assay: HDAC1/6 Enzyme Inhibitory Assay (HDAC-Glo I/II Assay kit), HDAC6; details: 1 μM test compound; wells without enzyme = 100% inhibition; read-out: HDAC6 inhibitory rate (%) (1 μM)
T1 construct: transducing full length HDAC1 and HDAC6 genes into Sf-9 insect cells; GST; purchased SignalChem; host or cells: Sf-9 insect cells
T1 sequence (Q9UBN7 1-1215): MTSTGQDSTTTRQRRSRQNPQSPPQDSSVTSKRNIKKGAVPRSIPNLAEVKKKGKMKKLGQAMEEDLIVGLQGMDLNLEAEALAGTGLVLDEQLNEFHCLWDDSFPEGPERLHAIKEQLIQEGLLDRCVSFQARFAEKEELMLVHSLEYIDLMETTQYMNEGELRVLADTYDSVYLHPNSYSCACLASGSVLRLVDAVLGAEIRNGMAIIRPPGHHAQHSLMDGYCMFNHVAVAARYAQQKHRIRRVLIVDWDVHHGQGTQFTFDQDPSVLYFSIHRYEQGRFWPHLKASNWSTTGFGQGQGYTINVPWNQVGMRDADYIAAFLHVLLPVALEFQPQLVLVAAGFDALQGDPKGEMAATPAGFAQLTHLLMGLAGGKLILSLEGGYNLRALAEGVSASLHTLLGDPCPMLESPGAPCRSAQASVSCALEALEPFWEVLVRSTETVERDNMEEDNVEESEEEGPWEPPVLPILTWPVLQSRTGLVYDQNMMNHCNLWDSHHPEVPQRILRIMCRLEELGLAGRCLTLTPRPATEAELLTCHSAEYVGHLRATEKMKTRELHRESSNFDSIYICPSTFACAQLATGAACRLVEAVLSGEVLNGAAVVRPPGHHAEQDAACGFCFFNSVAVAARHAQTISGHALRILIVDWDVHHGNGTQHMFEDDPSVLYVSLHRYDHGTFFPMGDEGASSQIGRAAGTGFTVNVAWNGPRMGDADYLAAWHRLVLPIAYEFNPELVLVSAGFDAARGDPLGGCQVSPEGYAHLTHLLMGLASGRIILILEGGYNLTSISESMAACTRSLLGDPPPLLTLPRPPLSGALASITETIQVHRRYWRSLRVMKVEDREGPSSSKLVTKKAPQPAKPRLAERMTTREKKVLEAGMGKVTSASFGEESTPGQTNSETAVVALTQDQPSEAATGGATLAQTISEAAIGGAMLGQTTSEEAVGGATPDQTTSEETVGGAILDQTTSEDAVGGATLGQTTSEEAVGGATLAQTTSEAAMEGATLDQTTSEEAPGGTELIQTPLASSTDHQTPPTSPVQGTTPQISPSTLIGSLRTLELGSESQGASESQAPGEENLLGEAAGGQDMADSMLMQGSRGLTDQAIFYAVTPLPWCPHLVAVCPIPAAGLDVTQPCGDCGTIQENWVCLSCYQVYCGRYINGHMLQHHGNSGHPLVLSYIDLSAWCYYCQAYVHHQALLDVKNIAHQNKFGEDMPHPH
How it was run: (§1)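 Full-length human HDAC1 or HDAC6, expressed in Sf-9 cells and GST-purified, was preincubated with compound for 60 min at room temperature in Tris-HCl pH 7.5 buffer with MgCl2, KCl, NaCl, glutathione and Tween-20. HDAC-Glo substrate-developer was then added, and luminescence was read after 20 min. Inhibition was referenced to no-enzyme wells as 100%.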

[2] = target: T2, HDAC1 enzyme (Homo sapiens, UniProt Q13547); assay: HDAC1/6 Enzyme Inhibitory Assay (HDAC-Glo I/II Assay kit), HDAC1; details: 1 μM test compound; wells without enzyme = 100% inhibition; read-out: HDAC1 inhibitory rate (%) (1 μM)
T2 construct: transducing full length HDAC1 and HDAC6 genes into Sf-9 insect cells; GST; purchased SignalChem; host or cells: Sf-9 insect cells
T2 sequence (Q13547 whole entry): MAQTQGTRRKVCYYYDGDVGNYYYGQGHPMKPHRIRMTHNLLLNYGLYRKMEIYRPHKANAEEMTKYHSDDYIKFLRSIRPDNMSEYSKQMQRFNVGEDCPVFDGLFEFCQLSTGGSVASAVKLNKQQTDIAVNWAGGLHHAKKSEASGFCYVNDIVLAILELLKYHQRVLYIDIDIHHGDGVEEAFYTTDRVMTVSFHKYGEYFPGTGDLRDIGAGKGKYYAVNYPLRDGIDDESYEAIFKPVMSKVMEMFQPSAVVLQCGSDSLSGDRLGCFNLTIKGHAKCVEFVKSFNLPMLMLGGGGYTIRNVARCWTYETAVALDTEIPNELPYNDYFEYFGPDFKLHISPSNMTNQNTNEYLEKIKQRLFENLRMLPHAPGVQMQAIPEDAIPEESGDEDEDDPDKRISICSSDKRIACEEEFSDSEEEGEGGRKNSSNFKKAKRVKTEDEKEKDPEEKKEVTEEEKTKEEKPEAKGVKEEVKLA
How it was run: as §1

[3] = target: T3, HDAC9 enzyme (Homo sapiens, UniProt Q9UKV0); assay: HDAC9 Enzyme Inhibitory Assay (HDAC-Glo class IIa); details: 1 μM test compound; wells without enzyme = 100% inhibition; read-out: HDAC9 inhibitory rate (%) (1 μM)
T3 construct: transducing full length HDAC9 gene into Sf-9 insect cells; made in house; host or cells: Sf-9 insect cells
T3 sequence (Q9UKV0 whole entry, species assumed): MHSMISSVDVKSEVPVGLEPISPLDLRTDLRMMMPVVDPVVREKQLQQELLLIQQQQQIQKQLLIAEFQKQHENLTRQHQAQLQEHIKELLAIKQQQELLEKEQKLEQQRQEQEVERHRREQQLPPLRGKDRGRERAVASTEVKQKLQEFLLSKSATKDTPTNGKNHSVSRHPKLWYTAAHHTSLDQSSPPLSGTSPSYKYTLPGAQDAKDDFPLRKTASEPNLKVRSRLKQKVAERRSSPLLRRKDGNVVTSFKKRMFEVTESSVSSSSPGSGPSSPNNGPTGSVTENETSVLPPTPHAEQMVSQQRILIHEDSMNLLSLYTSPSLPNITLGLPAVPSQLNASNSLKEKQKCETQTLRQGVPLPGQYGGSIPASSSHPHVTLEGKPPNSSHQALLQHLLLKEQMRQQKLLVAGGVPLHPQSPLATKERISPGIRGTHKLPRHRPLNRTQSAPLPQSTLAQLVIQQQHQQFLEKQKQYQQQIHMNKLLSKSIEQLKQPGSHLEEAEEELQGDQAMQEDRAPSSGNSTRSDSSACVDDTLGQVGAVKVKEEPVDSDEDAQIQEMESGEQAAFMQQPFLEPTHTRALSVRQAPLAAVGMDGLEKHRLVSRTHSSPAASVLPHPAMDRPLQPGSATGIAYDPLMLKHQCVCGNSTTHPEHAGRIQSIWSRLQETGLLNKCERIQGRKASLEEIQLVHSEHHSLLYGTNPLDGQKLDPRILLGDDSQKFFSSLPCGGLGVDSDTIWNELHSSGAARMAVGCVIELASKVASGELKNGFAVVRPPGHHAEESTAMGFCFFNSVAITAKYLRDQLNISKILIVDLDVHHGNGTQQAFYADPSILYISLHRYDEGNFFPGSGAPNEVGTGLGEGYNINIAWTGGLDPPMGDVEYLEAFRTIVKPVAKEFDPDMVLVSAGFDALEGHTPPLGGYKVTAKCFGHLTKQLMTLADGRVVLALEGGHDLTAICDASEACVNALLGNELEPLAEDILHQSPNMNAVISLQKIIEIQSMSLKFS
How it was run: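 Full-length human HDAC9 from Sf-9 cells, Ni-NTA purified, preincubated with compound for 60 min at room temperature in Tris-HCl pH 7.5 buffer (MgCl2, KCl, NaCl, glutathione, Tween-20). HDAC-Glo class IIa substrate-developer added; luminescence read after 20 min, with no-enzyme wells defining 100% inhibition.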

Q: For `O=C1CC(C(=O)N[C@@H]2CCCCC2N2Cc3ccc(-c4noc(C(F)(F)F)n4)cc3C2=O)CN1` (stereo in doubt) [Example 131, (3R)-5-oxo-N-((1R,2R)-2-(1-oxo-6-(5-(trifluoromethyl)-1,2,4-oxadiazol-3-yl)-1,3-dihydro-2H-isoindol-2-yl)cyclohexyl)pyrrolidine-3-carboxamide], which inhibition at 1 µM [1] is on record?
A: The inhibition at 1 µM was 88%.

Q: What about the inhibition at 1 µM [2] of the same compound?
A: Its inhibition at 1 µM is 0%.

Q: What about the inhibition at 1 µM [3] of the same compound?
A: Its inhibition at 1 µM is 31%.

Q: With `O=C(N[C@@H]1CCCC[C@H]1N1Cc2ccc(-c3noc(C(F)(F)F)n3)cc2C1=O)N1CCC1` [Example 159, N-((1R,2R)-2-(1-oxo-6-(5-(trifluoromethyl)-1,2,4-oxadiazol-3-yl)-1,3-dihydro-2H-isoindol-2-yl)cyclohexyl)azetidine-1-carboxamide] as the compound, how does the inhibition at 1 µM [1] read?
A: Its inhibition at 1 µM is 98%.

Q: And the inhibition at 1 µM [2]?
A: The inhibition at 1 µM was 5%.

Q: What about the inhibition at 1 µM [3] of the same compound?
A: Its inhibition at 1 µM is 39%.

Q: `O=C1c2cc(-c3noc(C(F)(F)F)n3)ccc2CN1[C@@H]1CCCC[C@H]1c1ccccc1` (relative stereo) [Example 17, trans-2-(2-phenylcyclohexyl)-6-(5-(trifluoromethyl)-1,2,4-oxadiazol-3-yl)isoindolin-1-one] was tested. Which inhibition at 1 µM [1] did it give?
A: The inhibition at 1 µM was 98%.

Q: And the inhibition at 1 µM [2]?
A: Its inhibition at 1 µM is 52%.

Q: And the inhibition at 1 µM [3]?
A: Its inhibition at 1 µM is 85%.

Q: Which inhibition at 1 µM [1] does the source give for `CC(=O)N1C[C@@H](N2Cc3ccc(-c4noc(C(F)(F)F)n4)cc3C2=O)[C@H](c2ccccc2)C1` (relative stereo) [Example 4, trans-2-(1-acetyl-4-phenylpyrrolidin-3-yl)-6-(5-(trifluoromethyl)-1,2,4-oxadiazol-3-yl)isoindolin-1-one] here?
A: Its inhibition at 1 µM is 99%.

Q: And the inhibition at 1 µM [2]?
A: Its inhibition at 1 µM is 69%.

Q: And the inhibition at 1 µM [3]?
A: Its inhibition at 1 µM is 96%.

Q: Which inhibition at 1 µM [1] does the source give for `O=C(N[C@@H]1CCOC[C@H]1N1Cc2ccc(-c3noc(C(F)(F)F)n3)cc2C1=O)[C@@H]1CCOC1` [Example 206, (3R)-N-((3S,4R)-3-(1-oxo-6-(5-(trifluoromethyl)-1,2,4-oxadiazol-3-yl)-1,3-dihydro-2H-isoindol-2-yl)tetrahydro-2H-pyran-4-yl)tetrahydrofuran-3-carboxamide] here?
A: The inhibition at 1 µM was 97%.

Q: What about the inhibition at 1 µM [2] of the same compound?
A: The inhibition at 1 µM was 5%.

Q: And the inhibition at 1 µM [3]?
A: Its inhibition at 1 µM is 52%.

Q: What does the source list for `N[C@H]1CCCC[C@@H]1N1Cc2ccc(-c3noc(C(F)(F)F)n3)cc2C1=O` [Example 29, 2-((1S,2S)-2-aminocyclohexyl)-6-(5-(trifluoromethyl)-1,2,4-oxadiazol 3-yl)isoindolin-1-one]?
A: inhibition at 1 µM [1]: 34%; inhibition at 1 µM [2]: -2%; inhibition at 1 µM [3]: 45%

Q: What does the source list for `O=C1c2ccc(-c3noc(C(F)(F)F)n3)cc2CN1[C@@H]1CNCC[C@H]1c1ccccc1` (relative stereo) [Example 72, trans-2-(4-phenylpiperidin-3-yl)-5-(5-(trifluoromethyl)-1,2,4-oxadiazol-3-yl)isoindolin-1-one]?
A: inhibition at 1 µM [1]: 90%; inhibition at 1 µM [2]: 32%; inhibition at 1 µM [3]: 80%

Q: `CC(C)(C)OC(=O)N1C[C@@H](N2Cc3ccc(-c4noc(C(F)(F)F)n4)cc3C2=O)[C@H](c2ccccc2)C1` (relative stereo) [Example 2, tert-butyl trans-3-(1-oxo-6-(5-(trifluoromethyl)-1,2,4-oxadiazol-3-yl)-1,3-dihydro-2H-isoindol-2-yl)-4-phenylpyrrolidine-1-carboxylate] was tested. Which inhibition at 1 µM [1] did it give?
A: The inhibition at 1 µM was 98%.

Q: And the inhibition at 1 µM [2]?
A: The inhibition at 1 µM was 33%.

Q: What about the inhibition at 1 µM [3] of the same compound?
A: Its inhibition at 1 µM is 90%.

Q: `CC(C)(O)C(=O)N[C@H]1CCCC[C@@H]1N1Cc2ccc(-c3noc(C(F)(F)F)n3)cc2C1=O` [Example 219, 2-hydroxy-2-methyl-N-((1S,2S)-2-(1-oxo-6-(5-(trifluoromethyl)-1,2,4-oxadiazol-3-yl)-1,3-dihydro-2H-isoindol-2-yl)cyclohexyl)propanamide] was tested. Which inhibition at 1 µM [1] did it give?
A: Its inhibition at 1 µM is 40%.

Q: What about the inhibition at 1 µM [2] of the same compound?
A: Its inhibition at 1 µM is 5%.

Q: What about the inhibition at 1 µM [3] of the same compound?
A: Its inhibition at 1 µM is 50%.

Q: How did the inhibition at 1 µM [1] turn out when `Cn1cncc1C(=O)N[C@@H]1CCCC[C@H]1N1Cc2ccc(-c3noc(C(F)(F)F)n3)cc2C1=O` [Example 110, 1-methyl-N-((1R,2R)-2-(1-oxo-6-(5-(trifluoromethyl)-1,2,4-oxadiazol-3-yl)-1,3-dihydro-2H-isoindol-2-yl)cyclohexyl)-1H-imidazole-5-carboxamide] was run?
A: The inhibition at 1 µM was 99%.

Q: What about the inhibition at 1 µM [2] of the same compound?
A: The inhibition at 1 µM was 18%.

Q: And the inhibition at 1 µM [3]?
A: The inhibition at 1 µM was 73%.
